# Patent US9149538B2, “Oligomer conjugates of heteropentacyclic nucleosides” (priority 2008, dated 2015)
# pEC50: −log10 of the molar value. Where two headings read alike, the source gives them in different places.
# Assays:
# [1] = test system: Influenza A/Hong Kong/8/68; assay: microbe, parasite or virus in culture; format: cell-based, influenza type A
# in vitro = details: dog
# BVDV NADL = assay: Anti-Bovine Diarrhea Virus (surrogate Hepatitis C) cytoprotection assay (XTT) in MDBK cells; format: cell-based, Bovine Viral Diarrhea virus; details: inhibition of virus-induced cell killing, 100 μM high test concentration
# MDBK cells = details: read-out: TC50, cells plus drug only, XTT
SMILES,"pEC50 ([1]; Influenza A virus, MDCK, MDCK/Influenza A/Hong Kong/8/68, inhibition of virus-induced cell killing, XTT, 100 μM high test concentration, read-out: EC50)","CC50 (in vitro; TC50, MDCK cells, cells plus drug only, XTT) [µM]",pEC50 ([1]; read-out: EC50),pEC50 (BVDV NADL),CC50 (MDCK cells) [µM],CC50 (MDBK cells) [µM],pEC50 [1],"pEC50 ([1]; Influenza A virus, MDCK)","pEC50 (BVDV NADL; Bovine viral diarrhea virus isolates and strains, MDBK)",CC50 (MDCK cells; dog) [µM],CC50 (in vitro; TC50) [µM]
"NC12CC3CC(CC(C3)C1)C2 [Amantadine, amantadine, reference compound]",7.00,> 10,–,–,–,–,–,–,–,–,–
COCCOCCOCCOCCOCCN(CCOCCOCCOCCOCCOC)C(=O)c1ncn([C@@H]2O[C@H](CO)[C@@H](O)[C@H]2O)n1 [Di-mPEG5-N-Ribavirin],–,–,5.26,< 4.00,19.5,> 100,–,–,–,–,–
COCCOCCOCCOCCOCCOCCOCCN(CCOCCOCCOCCOCCOCCOCCOC)C(=O)c1ncn([C@@H]2O[C@H](CO)[C@@H](O)[C@H]2O)n1 [Di-mPEG7-N-Ribavirin],–,–,< 4.00,< 4.00,> 100,> 100,–,–,–,–,–
"NC(=O)c1ncn([C@@H]2O[C@H](CO)[C@@H](O)[C@H]2O)n1 [Ribavirin, ribavirin, reference compound]",–,–,–,5.28,–,–,4.79,4.74,5.09,79,50
COCCOCCOCCNC(=N)c1ncn([C@@H]2O[C@H](CO)[C@@H](O)[C@H]2O)n1 [mPEG3-N-Ribamidine],–,–,4.17,< 4.00,> 100,> 100,–,–,–,–,–
COCCOCCOCCOCCOCCNC(=O)c1ncn([C@@H]2O[C@H](CO)[C@@H](O)[C@H]2O)n1 [mPEG5-N-Ribavirin],–,–,< 4.00,< 4.00,> 100,> 100,–,–,–,–,–
COCCOCCOCCOCCOCCOCCNC(=N)c1ncn([C@@H]2O[C@H](CO)[C@@H](O)[C@H]2O)n1 [mPEG6-N-Ribamidine],–,–,< 4.00,< 4.00,> 100,87.6,–,–,–,–,–
COCCOCCOCCOCCOCCOCCOCCNC(=N)c1ncn([C@@H]2O[C@H](CO)[C@@H](O)[C@H]2O)n1 [mPEG7-N-Ribamidine],–,–,< 4.00,< 4.00,> 100,> 100,–,–,–,–,–
